Reference: US11833148B2, “Methods for treating or limiting development of cardiovascular disease-related neurological disorders” (ARIZONA BOARD OF REGENTS ON BEHALF OF THE UNIVERSITY OF …, priority 2018, dated 2023)
Entries after “also recorded” stand apart in the source; their conditions may differ.

Experiments:
Assay type in all cases: in vivo
TAC mice [1] = experiment: Novel object recognition (NOR) test in TAC mice; settings: daily SQ 2 mg/kg/mouse, 10 weeks post-surgery, compared to saline treated TAC mice
Procedure: FIG. 4 is a graph showing the effects of treatment on novel object recognition (NOR). At 10 weeks post-surgery, the mice underwent NOR test to assess cognitive function.
(§1) Treatment was initiated one week after TAC surgery (daily SQ injections at a dose of 2 mg/kg/mouse) when aortic constriction was confirmed. The treatment groups (n=12 per groups) included sham surgery controls treated with saline, TAC surgery controls treated with saline, TAC surgery animals treated with A (1-7), TAC surgery animals treated with Compound 7 and TAC surgery animals treated with Compound 10. Blood pressure was measured approximately 5-6 weeks after surgery by tail cuff and unaffected by Compound 7 or Compound 10. […] Novel object recognition (NOR) is a test of non-spatial memory. […] The preference of the animal for a novel object over a familiar object exploits the natural tendency of rodents to explore novel objects, was tested 10 weeks after surgery.

TAC mice [2] = experiment: Blood pressure by tail cuff in trans-aortic constriction (TAC) mice; settings: daily SQ 2 mg/kg/mouse; for diastolic blood pressure / mean arterial pressure (MAP): approximately 5-6 weeks post-surgery, 30 minutes after dosing, compared to saline treated TAC mice
Procedure: FIG. 1 is a graph showing the effects of treatment on systolic blood pressure. At approximately 5-6 weeks post-surgery, systolic blood pressure was measured 30 minutes after dosing by tail cuff.
FIG. 2 is a graph showing the effects of treatment on diastolic blood pressure. At approximately 5-6 weeks post-surgery, diastolic blood pressure was measured 30 minutes after dosing by tail cuff.
FIG. 3 is a graph showing the effects of treatment on mean arterial pressure (MAP). At approximately 5-6 weeks post-surgery, mean arterial pressure was measured 30 minutes after dosing by tail cuff.
as §1

TAC mice [3] = experiment: Observation of adverse events after TAC surgery combined with Mas agonist treatment; settings: daily SQ 2 mg/kg/mouse
Procedure: as §1

[4] = test system: hippocampal cytokine levels (IL-2, IL-10, IL-4, IL-5, IL-6, IL-12p70, IFNγ, KC/GRO, TNFα, IL-10); experiment: Hippocampal cytokine levels in TAC mice by multi-plexed immunoassay (Meso Scale Discovery); settings: daily SQ 2 mg/kg/mouse, compared to saline treated TAC controls, data not shown
Procedure: as §1

Compound	novel object recognition (NOR) memory / cognitive function (TAC mice [1])	blood pressure (TAC mice [2]; approximately 5-6 weeks after surgery)	diastolic blood pressure (TAC mice [2])	mean arterial pressure (MAP) (TAC mice [2])	observable adverse events (TAC mice [3])	hippocampal levels of all cytokines tested (IL-2, IL-10, IL-4, IL-5, IL-6, IL-12p70, IFNγ, KC/GRO, TNFα, IL-10) [4]
CCCCOC(=O)NS(=O)(=O)c1ccc(OC(F)(F)F)cc1-c1ccc(Cn2ccnc2)cn1 [Compound 7]	restored NOR memory to sham levels; also recorded: significantly increased cognition	unaffected	no significant effect	no significant effect	no observable adverse events	decreased
A (1-7): comparator treatment in TAC mice, printed only as A (1-7) (DRVYIHP; Angiotensin 1-7; UniProt P01019 25-31, looked up) [reference compound]			significantly reduced	significantly reduced		
